The values that follow come from the RepoRT retention time repository (doi:10.1016/j.chroma.2012.12.030).

This series can be described thus: RP, Waters ACQUITY UPLC BEH C18, 100 × 2.1 mm, 1.7 µm, 60 °C, 0.3 mL/min, estimated dead time 0.73 min; A: water + 0.01% formic acid; B: methanol + 0.01% formic acid; gradient (min/%B) 0/10 14/90 16/90. Particulars: stereoisomer not certain.
As to `CCNc1nc(NCC)[nH]c(=O)n1`, the LC retention time was 2.83 min.

For the compound `CCOC(=O)C1C(OC(=O)c2ccccc2)CC2CCC1N2C` (stereo not given), the LC retention time is 5.78 min.

As to `CCC1OC(=O)C(C)C(OC2CC(C)(OC)C(O)C(C)O2)C(C)C(OC2OC(C)CC(N(C)C)C2O)C(C)(O)CC(C)C(=NOCOCCOC)C(C)C(O)C1(C)O` (stereo not given), the LC retention time is 9.99 min.

With `CC12CCC3c4ccc(O)cc4CCC3C1CC(O)C2O` (stereo not given), the LC retention time was 6.96 min.

Take `CC(C)c1ccc(NC(=O)N(C)C)cc1`: the LC retention time was 8.83 min.

As for `CCNc1nc(NC(C)(C)C)nc(SC)n1`, the LC retention time was 10.6 min.

As to `CCCCC(=O)N(Cc1ccc(-c2ccccc2-c2nn[nH]n2)cc1)C(C(=O)O)C(C)C` (stereo not given), the LC retention time was 10.6 min.

On to `CC1(C)SC2C(NC(=O)Cc3ccccc3)C(=O)N2C1C(=O)O` (stereo not given), for which the LC retention time was 7.08 min.

In the case of `CNC(C)C(=O)c1ccccc1` (stereo not given), the LC retention time was 2.26 min.

For `COc1ccc2cc(C(C)C(=O)O)ccc2c1` (stereo not given), the LC retention time was 9.74 min.

In the case of `CCC1OC(=O)C(C)C(OC2CC(C)(OC)C(O)C(C)O2)C(C)C(OC2OC(C)CC(N(C)C)C2O)C(C)(O)CC(C)C(=O)C(C)C(O)C1(C)O` (stereo not given), the LC retention time was 8.5 min.

As for `COc1cc2c(c3oc(=O)c4c(c13)CCC4=O)C1C=COC1O2` (stereo not given), the LC retention time was 7.15 min.

As to `CC(=O)OCC12CC(OC(=O)CC(C)C)C(C)=CC1OC1C(O)C(OC(C)=O)C2(C)C12CO2` (stereo not given), the LC retention time was 10 min.

With `Cc1nnc(N=S(=O)(O)c2ccc(N)cc2)s1`, the LC retention time is 3.19 min.

Turning to `NC(=O)N1c2ccccc2C=Cc2ccccc21`, the LC retention time was 8.1 min.

Consider `O=C(c1ccc(O)cc1O)c1ccc(O)cc1O`, for which the LC retention time is 6.4 min.

In the case of `CCNc1nc(NC(C)C)[nH]c(=O)n1`, the LC retention time was 3.93 min.

Turning to `CCNc1nc(NC(C)(C)C)nc(OC)n1`, the LC retention time is 9.07 min.

For the compound `CC(N)Cc1ccc2c(c1)OCO2` (stereo not given), the LC retention time was 2.97 min.

For `COc1ccc(C(=O)c2ccccc2)c(O)c1`, the LC retention time was 11.1 min.

In the case of `CC12CCC3c4ccc(OS(=O)(=O)O)cc4CCC3C1CCC2O` (stereo not given), the LC retention time is 10.4 min.

Regarding `CCNC(C)Cc1ccc2c(c1)OCO2` (stereo not given), the LC retention time was 3.48 min.

For `CNC(C)Cc1ccccc1` (stereo not given), the LC retention time was 3.05 min.

Turning to `CC1=CC2OC3C(O)CC(C)(C34CO4)C2(CO)C(O)C1=O` (stereo not given), the LC retention time is 2.83 min.

Consider `CCCCC(C)C(OC(=O)CC(CC(=O)O)C(=O)O)C(CC(C)CC(O)CCCCC(O)CC(O)C(C)N)OC(=O)CC(CC(=O)O)C(=O)O` (stereo not given), for which the LC retention time was 9.48 min.

As to `COc1cc2c(c3oc(=O)c4c(c13)CCOC4=O)C1CCOC1O2` (stereo not given), the LC retention time was 5.93 min.

As to `COC(=O)C1C2CCC(CC1OC(=O)c1ccccc1)N2` (stereo not given), the LC retention time is 5.14 min.

In the case of `Cc1c(N)c(=O)n(-c2ccccc2)n1C`, the LC retention time was 3.48 min.

As for `CCOP(=S)(OCC)Oc1cc(C)nc(C(C)C)n1`, the LC retention time was 11.9 min.

Regarding `Cc1ccc(C)c(OCCCC(C)(C)C(=O)O)c1`, the LC retention time is 12.8 min.

With `CCCCC1=NC2(CCCC2)C(=O)N1Cc1ccc(-c2ccccc2-c2nn[nH]n2)cc1`, the LC retention time was 10.3 min.

With `Cc1cc(NS(=O)(=O)c2ccc(N)cc2)no1`, the LC retention time was 3.91 min.

For `CC(C)N1C(=O)N(c2ccccc2)CSC1=NC(C)(C)C`, the LC retention time was 13.1 min.

For the compound `COc1ccc2nc(S(=O)Cc3ncc(C)c(OC)c3C)[nH]c2c1` (stereo not given), the LC retention time was 7.55 min.

As for `COc1cc2c(c3oc(=O)c4c(c13)CCC4=O)C1CCOC1O2` (stereo not given), the LC retention time was 6.76 min.

In the case of `C#CC1(O)CCC2C3CCc4cc(O)ccc4C3CCC21C` (stereo not given), the LC retention time is 10.1 min.

Regarding `CNC(C)Cc1ccc2c(c1)OCO2` (stereo not given), the LC retention time was 3.02 min.

In the case of `CCCCOC(=O)c1ccc(O)cc1`, the LC retention time was 10.3 min.

Take `CCNc1nc(NC(C)(C)C)[nH]c(=O)n1`: the LC retention time was 5.25 min.

Take `O=C(O)c1ccccc1O`: the LC retention time was 4.8 min.

For the compound `CC(C)Cc1ccc(C(C)C(=O)O)cc1` (stereo not given), the LC retention time was 11.8 min.

Take `CC(=O)OCC12CC(OC(=O)CC(C)C)C(C)=CC1OC1C(O)C(O)C2(C)C12CO2` (stereo not given): the LC retention time was 9.07 min.

As to `c1ccc2[nH]c(-c3cscn3)nc2c1`, the LC retention time is 4.8 min.

On to `COCC(=O)N(c1c(C)cccc1C)C(C)C(=O)OC` (stereo not given), for which the LC retention time is 9.09 min.

`Cc1cc2c(s1)Nc1ccccc1N=C2N1CCN(C)CC1`: the LC retention time is 3.44 min.

`CC(C(=O)O)c1cccc(C(=O)c2ccccc2)c1` (stereo not given): the LC retention time is 9.5 min.

Take `Cc1onc(-c2ccccc2)c1C(=O)NC1C(=O)N2C1SC(C)(C)C2C(=O)O` (stereo not given): the LC retention time is 8.19 min.

Consider `CCSC(=O)N1CCCCCC1`, for which the LC retention time was 10.4 min.

As for `COc1cc(O)c(C(=O)c2ccccc2)cc1S(=O)(=O)O`, the LC retention time was 6.4 min.

As to `COP(=S)(OC)SCn1nnc2ccccc2c1=O`, the LC retention time is 11.5 min.

For `Nc1ccc(S(=O)(=O)Nc2ncccn2)cc1`, the LC retention time was 2.09 min.

In the case of `CC12CCC3c4ccc(OS(=O)(=O)O)cc4CCC3C1CCC2=O` (stereo not given), the LC retention time is 10.6 min.

Turning to `CCC(C)(C)C(=O)OC1CC(C)C=C2C=CC(C)C(CCC3CC(O)CC(=O)O3)C21` (stereo not given), the LC retention time was 14.2 min.

`CCC1OC(=O)C(C)C(OC2CC(C)(OC)C(O)C(C)O2)C(C)C(OC2OC(C)CC(N(C)C)C2O)C(C)(OC)CC(C)C(=O)C(C)C(O)C1(C)O` (stereo not given): the LC retention time was 9.78 min.

With `CC(N)Cc1ccccc1` (stereo not given), the LC retention time was 2.8 min.

In the case of `CCC(C)C(=O)OC1CC(O)C=C2C=CC(C)C(CCC(O)CC(O)CC(=O)O)C21` (stereo not given), the LC retention time was 9.27 min.

For the compound `CCCCCc1cc(O)c2c(c1)OC(C)(C)C1CCC(C(=O)O)=CC21` (stereo not given), the LC retention time is 13.9 min.

`CCOP(=S)(OCC)Oc1ccc(=O)n(-c2ccccc2)n1`: the LC retention time was 10.7 min.

With `CCC(=C(CC)c1ccc(O)cc1)c1ccc(O)cc1`, the LC retention time is 10.3 min.

For the compound `O=C(OC1CC2CCC([NH2+]2)C1C(=O)[O-])c1ccccc1` (stereo not given), the LC retention time was 4.3 min.

As for `CC(C)N1C(=O)c2ccccc2NS1(=O)=O`, the LC retention time was 6.66 min.

Turning to `O=C1OC(CN2CCOCC2)CN1N=Cc1ccc([N+](=O)[O-])o1` (stereo not given), the LC retention time was 2.64 min.

Regarding `CNC(=O)Oc1cc(C)c(SC)c(C)c1`, the LC retention time is 9.95 min.

For `CCOC(=O)c1ccc(O)cc1`, the LC retention time was 7.54 min.

Consider `CCN(CC)c1nc(C)cc(OP(=S)(OC)OC)n1`, for which the LC retention time is 12 min.

Take `CNC(=O)ON=C(C)SC`: the LC retention time is 3.09 min.

For the compound `COc1cc2c(c3oc(=O)c4c(c13)CCOC4=O)C1C=COC1O2` (stereo not given), the LC retention time was 6.35 min.

`COc1nn(CSP(=S)(OC)OC)c(=O)s1`: the LC retention time was 9.06 min.

Take `CCn1cc(C(=O)O)c(=O)c2ccc(C)nc21`: the LC retention time is 7.1 min.

As to `Cc1nc(N(C)C)nc(OC(=O)N(C)C)c1C`, the LC retention time was 7.79 min.

For `CC(=O)Nc1ccc(O)cc1`, the LC retention time is 2.05 min.

`CCn1cc(C(=O)O)c(=O)c2cc3c(cc21)OCO3`: the LC retention time was 5.67 min.

For `COC=C(C(=O)OC)c1ccccc1Oc1cc(Oc2ccccc2C#N)ncn1`, the LC retention time was 10 min.

With `CCC1OC(=O)C(C)C(OC2CC(C)(OC)C(O)C(C)O2)C(C)C(OC2OC(C)CC(N(C)C)C2O)C(C)(O)CC(C)CN(C)C(C)C(O)C1(C)O` (stereo not given), the LC retention time was 6.2 min.

As to `CCn1cc(C(=O)O)c(=O)c2cnc(N3CCNCC3)nc21`, the LC retention time was 2.7 min.

As for `CC(=O)OC1(C(C)=O)CCC2C3CC(C)C4=CC(=O)CCC4(C)C3CCC21C` (stereo not given), the LC retention time was 11.7 min.

With `CCCCC(C)C(OC(=O)CC(CC(=O)O)C(=O)O)C(CC(C)CCCCCCC(O)CC(O)C(C)N)OC(=O)CC(CC(=O)O)C(=O)O` (stereo not given), the LC retention time was 11 min.

On to `C=C1CC2C3C=C(C)C4=CC(=O)CCC4(C)C3CCC2(C)C1(OC(C)=O)C(C)=O` (stereo not given), for which the LC retention time is 11.8 min.

On to `CC(=O)O[Si](CCCC(O)COC(=O)c1ccc(O)cc1)(OC(C)=O)c1ccccc1` (stereo not given), for which the LC retention time was 5.92 min.

Turning to `CC(=O)OC1(C(C)=O)CCC2C3C=C(C)C4=CC(=O)CCC4(C)C3CCC21C` (stereo not given), the LC retention time was 11.5 min.

As for `COc1cc2c(c3oc(=O)c4c(c13)CCC4=O)C1(O)C=COC1O2` (stereo not given), the LC retention time is 6.04 min.

Take `COc1cc(Cc2cnc(N)nc2N)cc(OC)c1OC`: the LC retention time is 3.15 min.

Take `CNC(=O)Oc1cccc2c1OC(C)(C)C2`: the LC retention time is 7.48 min.

On to `CCC1OC(=O)CC(O)C(C)C(OC2OC(C)C(OC3CC(C)(O)C(O)C(C)O3)C(N(C)C)C2O)C(CC=O)CC(C)C(=O)C=CC(C)=CC1COC1OC(C)C(O)C(OC)C1OC` (stereo not given), for which the LC retention time was 8.84 min.

As to `CCCOC(=O)c1ccc(O)cc1`, the LC retention time was 8.97 min.

In the case of `CCCC1CC(C(=O)NC(C(C)O)C2OC(SC)C(O)C(O)C2O)N(C)C1` (stereo not given), the LC retention time is 3.13 min.

`Cc1cc(C2CC2)nc(Nc2ccccc2)n1`: the LC retention time was 11.4 min.

`CC(COc1ccc(Oc2ccccc2)cc1)Oc1ccccn1` (stereo not given): the LC retention time is 13.4 min.

As to `CN1C2CCC1C(C(=O)O)C(OC(=O)c1ccccc1)C2` (stereo not given), the LC retention time was 4.08 min.

With `COc1nc(N)nc(NC(C)(C)C)n1`, the LC retention time was 6.25 min.

As for `COC(=O)Nc1nc2ccccc2[nH]1`, the LC retention time is 3.89 min.

On to `COc1ccc(C(CN(C)C)C2(O)CCCCC2)cc1` (stereo not given), for which the LC retention time is 6.34 min.

As for `COC(=O)C1C(OC(=O)c2ccccc2)CC2CCC1N2C` (stereo not given), the LC retention time is 4.66 min.

Regarding `CNC(=O)Oc1cccc2ccccc12`, the LC retention time is 7.81 min.

As to `CNC(=O)CSP(=S)(OC)OC`, the LC retention time was 4.63 min.
